Usually IC50 stands for the midpoint of a concentration-inhibition curve. Low readings indicate greater potency in that assay, high ones weaker potency in that assay.

The assay concerns the target T1, HCV protease (Hepatitis C virus genotype 1a, UniProt P27958).
T1 construct: purchased ProteinOne
Kind of assay: biochemical.

T1 sequence (P27958 1027-1208, other chains not shown): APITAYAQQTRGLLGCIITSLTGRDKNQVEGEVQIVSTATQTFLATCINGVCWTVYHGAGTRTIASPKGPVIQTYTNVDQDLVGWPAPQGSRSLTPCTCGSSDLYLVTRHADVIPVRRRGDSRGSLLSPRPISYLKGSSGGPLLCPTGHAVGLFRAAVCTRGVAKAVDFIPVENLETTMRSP
Description: The HCV protease assay kits were purchased from ProteinOne and experiments were performed according to the manual provided.
Assay solution (100 μL) was added to each well by a multichannel pipette (Eppendorf Research) and the fluorescence signals were recorded immediately.
Fluorescence signals were recorded at 90 min. The experiment was repeated in triplicate. IC50 was calculated via nonlinear regression using the software package GraphPad Prism 5.

In the case of `CC(C)(C)OC(=O)CC[C@@H](CC(=O)C(=O)NCc1ccc(Cl)cc1)NC(=O)C[C@@H](NC(=O)C[C@@H](NC(=O)C[C@@H](NC(=O)CCC(=O)O)C1CCCCC1)C1CCCCC1)C1CCCCC1` [I^3-M^5-M^5-M^5-T^4], half-maximal inhibition (IC50) was put at 1000 nM.

The record behind these values is US20170088878A1, “METHOD FOR THE GENERATION OF CHEMICAL LIBRARIES” (ETH ZURICH, priority 2014, published 2017).
